# Where two headings read alike, the source gives them in different places.
# Experiments:
# Test in all cases: biochemical
# Parameters in all cases: Reaction Biology 371-kinase panel at Km ATP, per cent enzyme activity relative to DMSO, single dose in duplicate
# Conditions in all cases: duplicate measurements, Km ATP
# SGK1 = SGK1 (Homo sapiens, UniProt O00141)
# In short: (§1)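 Compound screened at 300 nM in vitro across a 371-kinase panel. Enzyme activity expressed as % of DMSO controls. IC50 values came from sigmoidal variable-slope dose-response fits with the bottom fixed at 0.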
# CAMK1d = CAMK1d (Homo sapiens, UniProt Q8IU85)
# In short: as §1
# YES/YES1 = YES/YES1 (Homo sapiens, UniProt P07947)
# Chain of YES/YES1 (P07947 whole entry): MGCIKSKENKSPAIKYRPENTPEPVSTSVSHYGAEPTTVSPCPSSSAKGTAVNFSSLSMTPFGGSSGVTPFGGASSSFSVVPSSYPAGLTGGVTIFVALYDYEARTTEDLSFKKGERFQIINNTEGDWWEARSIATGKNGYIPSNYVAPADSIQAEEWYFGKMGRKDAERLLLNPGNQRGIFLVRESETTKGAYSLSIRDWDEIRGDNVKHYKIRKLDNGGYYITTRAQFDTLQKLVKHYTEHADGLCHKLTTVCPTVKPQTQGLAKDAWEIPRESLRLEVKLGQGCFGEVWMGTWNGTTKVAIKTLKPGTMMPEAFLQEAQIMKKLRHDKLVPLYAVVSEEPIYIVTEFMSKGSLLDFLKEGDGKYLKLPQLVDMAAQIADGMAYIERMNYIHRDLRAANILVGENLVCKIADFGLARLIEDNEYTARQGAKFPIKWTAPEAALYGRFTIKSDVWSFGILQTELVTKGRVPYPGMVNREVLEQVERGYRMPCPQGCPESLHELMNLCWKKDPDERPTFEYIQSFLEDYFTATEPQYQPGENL
# In short: as §1
# CDK16/cyclin Y (PCTAIRE) = CDK16/cyclin Y (PCTAIRE) (Homo sapiens, UniProt Q00536)
# In short: as §1
# PKN3/PRK3 = PKN3/PRK3 (Homo sapiens, UniProt Q6P5Z2)
# Chain of PKN3/PRK3 (Q6P5Z2 whole entry): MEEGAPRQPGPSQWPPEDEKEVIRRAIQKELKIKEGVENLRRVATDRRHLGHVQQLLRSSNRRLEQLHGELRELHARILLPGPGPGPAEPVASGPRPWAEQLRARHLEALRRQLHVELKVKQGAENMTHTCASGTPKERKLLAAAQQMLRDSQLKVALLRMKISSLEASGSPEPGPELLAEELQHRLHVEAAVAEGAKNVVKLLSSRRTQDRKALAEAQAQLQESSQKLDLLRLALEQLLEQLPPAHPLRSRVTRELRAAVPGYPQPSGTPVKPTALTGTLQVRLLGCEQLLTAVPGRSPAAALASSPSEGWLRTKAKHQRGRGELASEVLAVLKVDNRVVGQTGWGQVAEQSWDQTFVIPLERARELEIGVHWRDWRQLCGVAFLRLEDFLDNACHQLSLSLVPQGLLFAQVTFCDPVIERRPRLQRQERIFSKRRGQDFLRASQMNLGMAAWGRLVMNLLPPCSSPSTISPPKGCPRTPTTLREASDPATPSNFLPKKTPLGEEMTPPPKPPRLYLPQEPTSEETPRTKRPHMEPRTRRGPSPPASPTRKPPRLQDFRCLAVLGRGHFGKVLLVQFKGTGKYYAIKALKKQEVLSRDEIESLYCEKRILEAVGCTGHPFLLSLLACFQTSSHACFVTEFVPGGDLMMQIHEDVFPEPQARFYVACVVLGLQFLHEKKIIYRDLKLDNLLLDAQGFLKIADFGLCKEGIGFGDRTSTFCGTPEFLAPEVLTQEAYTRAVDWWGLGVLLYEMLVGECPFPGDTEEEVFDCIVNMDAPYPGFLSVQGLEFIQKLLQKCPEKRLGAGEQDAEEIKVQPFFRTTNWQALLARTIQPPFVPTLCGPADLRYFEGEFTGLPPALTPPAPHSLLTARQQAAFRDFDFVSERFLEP
# In short: as §1
# DYRK2 = DYRK2 (Homo sapiens, UniProt Q92630)
# Chain of DYRK2 (Q92630 whole entry): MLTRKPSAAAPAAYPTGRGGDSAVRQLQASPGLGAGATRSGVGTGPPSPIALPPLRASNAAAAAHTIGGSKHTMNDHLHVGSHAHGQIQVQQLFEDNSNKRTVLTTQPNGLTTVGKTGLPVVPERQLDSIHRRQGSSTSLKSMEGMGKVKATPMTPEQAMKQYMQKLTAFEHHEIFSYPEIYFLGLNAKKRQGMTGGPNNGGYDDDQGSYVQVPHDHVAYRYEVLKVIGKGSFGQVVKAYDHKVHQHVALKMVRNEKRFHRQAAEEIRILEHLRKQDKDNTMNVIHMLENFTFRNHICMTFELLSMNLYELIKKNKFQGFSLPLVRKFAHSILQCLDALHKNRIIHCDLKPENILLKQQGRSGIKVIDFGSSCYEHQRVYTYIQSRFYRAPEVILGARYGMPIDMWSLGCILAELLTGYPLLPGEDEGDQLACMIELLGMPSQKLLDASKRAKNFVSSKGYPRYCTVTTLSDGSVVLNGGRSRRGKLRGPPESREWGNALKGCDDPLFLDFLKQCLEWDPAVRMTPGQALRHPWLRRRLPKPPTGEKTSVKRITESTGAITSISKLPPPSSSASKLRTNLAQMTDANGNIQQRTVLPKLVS
# In short: as §1
# LCK2/ICK = target: T1, LCK2/ICK (Homo sapiens, UniProt Q9UPZ9)
# T1 construct: gene CILK1
# T1 sequence (Q9UPZ9 whole entry): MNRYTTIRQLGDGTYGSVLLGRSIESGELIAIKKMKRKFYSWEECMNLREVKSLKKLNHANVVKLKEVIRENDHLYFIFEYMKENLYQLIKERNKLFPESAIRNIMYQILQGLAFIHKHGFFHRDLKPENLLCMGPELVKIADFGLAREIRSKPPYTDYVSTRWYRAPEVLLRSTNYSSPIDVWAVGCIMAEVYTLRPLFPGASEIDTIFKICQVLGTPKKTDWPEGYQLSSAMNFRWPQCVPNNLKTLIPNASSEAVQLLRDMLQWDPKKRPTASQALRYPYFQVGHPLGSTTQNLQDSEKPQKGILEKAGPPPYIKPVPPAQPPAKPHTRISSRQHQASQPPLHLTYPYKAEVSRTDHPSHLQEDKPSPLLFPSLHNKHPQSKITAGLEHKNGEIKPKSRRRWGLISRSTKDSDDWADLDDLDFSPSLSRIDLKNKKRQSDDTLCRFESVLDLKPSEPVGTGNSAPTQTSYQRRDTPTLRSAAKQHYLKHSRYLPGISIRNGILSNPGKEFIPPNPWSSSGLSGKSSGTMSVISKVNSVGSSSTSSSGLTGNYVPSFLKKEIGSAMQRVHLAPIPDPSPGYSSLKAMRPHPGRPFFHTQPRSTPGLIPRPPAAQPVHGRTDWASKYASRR
# In short: as §1
# MAK = MAK (Homo sapiens, UniProt P20794)
# In short: as §1
# CDK1/cyclin E = CDK1/cyclin E (Homo sapiens, UniProt P06493)
# Chain of CDK1/cyclin E (P06493 whole entry): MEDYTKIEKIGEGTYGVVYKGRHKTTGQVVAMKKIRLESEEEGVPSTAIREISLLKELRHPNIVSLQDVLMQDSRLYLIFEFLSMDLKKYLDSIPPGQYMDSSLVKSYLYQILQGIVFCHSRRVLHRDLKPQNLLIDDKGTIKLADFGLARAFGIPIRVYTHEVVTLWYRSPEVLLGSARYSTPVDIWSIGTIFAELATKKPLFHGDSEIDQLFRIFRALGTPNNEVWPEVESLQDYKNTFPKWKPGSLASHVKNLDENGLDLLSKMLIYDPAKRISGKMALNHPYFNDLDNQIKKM
# Chain of CDK1/cyclin E (P24864 whole entry partner): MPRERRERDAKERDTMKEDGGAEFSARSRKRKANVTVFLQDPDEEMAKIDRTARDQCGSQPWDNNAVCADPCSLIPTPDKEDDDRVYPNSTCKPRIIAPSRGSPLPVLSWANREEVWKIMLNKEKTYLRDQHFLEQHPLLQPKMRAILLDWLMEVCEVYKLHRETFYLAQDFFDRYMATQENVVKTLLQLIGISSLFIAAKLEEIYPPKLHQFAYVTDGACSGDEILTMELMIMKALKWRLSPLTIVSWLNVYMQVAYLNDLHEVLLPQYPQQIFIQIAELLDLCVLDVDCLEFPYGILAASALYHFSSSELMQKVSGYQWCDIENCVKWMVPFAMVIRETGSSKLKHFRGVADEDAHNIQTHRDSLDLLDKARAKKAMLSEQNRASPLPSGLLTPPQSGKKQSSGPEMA
# In short: as §1
# PKCg = target: T2, PKCg (Homo sapiens, UniProt P05129)
# T2 construct: gene PRKCG
# In short: as §1
# CDK9/cyclin T1 = CDK9/cyclin T1 (Homo sapiens, UniProt P50750)
# In short: as §1
# PRKX = PRKX (Homo sapiens, UniProt P51817)
# In short: as §1
# EPHA5 = EPHA5 (Homo sapiens, UniProt P54756)
# In short: as §1
# TGFBR2 = TGFBR2 (Homo sapiens, UniProt P37173)
# In short: as §1
# JAK2 = JAK2 (Homo sapiens, UniProt O60674)
# In short: as §1
# BTK = BTK (Homo sapiens, UniProt Q06187)
# In short: as §1
# PKCzeta = target: T3, PKCzeta (Homo sapiens, UniProt Q05513)
# T3 construct: gene PRKCZ
# T3 sequence (Q05513 whole entry): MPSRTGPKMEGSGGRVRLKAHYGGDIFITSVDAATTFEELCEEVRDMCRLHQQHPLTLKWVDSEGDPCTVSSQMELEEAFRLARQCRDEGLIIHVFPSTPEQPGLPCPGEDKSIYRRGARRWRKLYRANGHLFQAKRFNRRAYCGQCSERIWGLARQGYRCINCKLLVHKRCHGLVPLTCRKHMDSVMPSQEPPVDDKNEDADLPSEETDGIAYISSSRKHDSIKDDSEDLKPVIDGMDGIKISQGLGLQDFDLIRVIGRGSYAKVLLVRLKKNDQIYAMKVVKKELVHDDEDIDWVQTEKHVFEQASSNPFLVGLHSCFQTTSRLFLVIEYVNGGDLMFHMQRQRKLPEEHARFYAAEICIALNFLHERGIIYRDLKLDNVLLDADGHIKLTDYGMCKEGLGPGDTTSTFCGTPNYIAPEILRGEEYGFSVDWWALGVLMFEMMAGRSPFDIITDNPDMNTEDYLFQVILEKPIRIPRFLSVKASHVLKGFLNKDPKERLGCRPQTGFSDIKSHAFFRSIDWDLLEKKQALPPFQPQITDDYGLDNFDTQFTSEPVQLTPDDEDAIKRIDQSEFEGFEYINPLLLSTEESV
# In short: as §1
# TLK1 = TLK1 (Homo sapiens, UniProt Q9UKI8)
# Chain of TLK1 (Q9UKI8 whole entry): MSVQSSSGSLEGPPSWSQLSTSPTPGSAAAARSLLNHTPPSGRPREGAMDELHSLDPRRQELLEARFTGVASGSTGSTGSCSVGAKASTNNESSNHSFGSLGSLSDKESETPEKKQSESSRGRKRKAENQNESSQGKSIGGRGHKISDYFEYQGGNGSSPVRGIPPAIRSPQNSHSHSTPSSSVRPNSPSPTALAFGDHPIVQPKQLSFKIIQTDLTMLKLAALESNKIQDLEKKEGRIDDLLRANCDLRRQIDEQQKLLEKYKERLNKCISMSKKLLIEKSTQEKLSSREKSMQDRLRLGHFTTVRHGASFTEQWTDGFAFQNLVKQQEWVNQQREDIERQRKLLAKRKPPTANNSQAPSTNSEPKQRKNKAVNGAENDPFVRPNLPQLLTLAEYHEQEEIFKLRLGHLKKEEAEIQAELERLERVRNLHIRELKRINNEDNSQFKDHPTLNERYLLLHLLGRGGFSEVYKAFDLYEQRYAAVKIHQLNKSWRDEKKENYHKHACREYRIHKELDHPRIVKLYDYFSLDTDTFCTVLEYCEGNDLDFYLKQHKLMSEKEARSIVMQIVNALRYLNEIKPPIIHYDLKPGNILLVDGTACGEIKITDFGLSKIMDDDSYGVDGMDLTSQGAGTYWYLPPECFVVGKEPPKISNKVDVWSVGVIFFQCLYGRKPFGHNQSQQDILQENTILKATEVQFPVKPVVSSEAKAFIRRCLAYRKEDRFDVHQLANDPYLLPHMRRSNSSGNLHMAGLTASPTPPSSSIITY
# In short: as §1
# MKK6 = target: T4, MKK6 (Homo sapiens, UniProt P52564)
# T4 construct: gene MAP2K6
# In short: as §1
# MINK/MINK1 = MINK/MINK1 (Homo sapiens, UniProt Q8N4C8)
# In short: as §1
# [1] = read-out: % Enzyme Activity (relative to DMSO controls) / TP-0005801 (0.3µM) / Data 1
# [2] = read-out: % Enzyme Activity (relative to DMSO controls) / TP-0005801 (0.3µM) / Data 2
smiles,measurement,setting,value
COc1cc(N2CCN(C)CC2)c(C)cc1Nc1ncc(Br)c(Nc2cccnc2N(C)C)n1 [TP-5801],remaining activity at 0.3 µM,SGK1; [1],91.7%
same,remaining activity at 0.3 µM,SGK1; [2],91%
same,remaining activity at 0.3 µM,CAMK1d; [1],75.7%
same,remaining activity at 0.3 µM,CAMK1d; [2],73.7%
same,remaining activity at 0.3 µM,YES/YES1; [1],87.4%
same,remaining activity at 0.3 µM,YES/YES1; [2],85.4%
same,remaining activity at 0.3 µM,CDK16/cyclin Y (PCTAIRE); [1],99.8%
same,remaining activity at 0.3 µM,CDK16/cyclin Y (PCTAIRE); [2],97.2%
same,remaining activity at 0.3 µM,PKN3/PRK3; [1],95.4%
same,remaining activity at 0.3 µM,PKN3/PRK3; [2],93.7%
same,remaining activity at 0.3 µM,DYRK2; [1],94.2%
same,remaining activity at 0.3 µM,DYRK2; [2],90.5%
same,remaining activity at 0.3 µM,LCK2/ICK; [1],90.2%
same,remaining activity at 0.3 µM,LCK2/ICK; [2],87.9%
same,remaining activity at 0.3 µM,MAK; [1],98.4%
same,remaining activity at 0.3 µM,MAK; [2],94.1%
same,remaining activity at 0.3 µM,CDK1/cyclin E; [1],97.2%
same,remaining activity at 0.3 µM,CDK1/cyclin E; [2],94.9%
same,remaining activity at 0.3 µM,PKCg; [1],115%
same,remaining activity at 0.3 µM,PKCg; [2],107%
same,remaining activity at 0.3 µM,CDK9/cyclin T1; [1],128%
same,remaining activity at 0.3 µM,CDK9/cyclin T1; [2],115%
same,remaining activity at 0.3 µM,PRKX; [1],93.7%
same,remaining activity at 0.3 µM,PRKX; [2],92.5%
same,remaining activity at 0.3 µM,EPHA5; [1],122%
same,remaining activity at 0.3 µM,EPHA5; [2],117%
same,remaining activity at 0.3 µM,TGFBR2; [1],99.3%
same,remaining activity at 0.3 µM,TGFBR2; [2],97.8%
same,remaining activity at 0.3 µM,JAK2; [1],82.8%
same,remaining activity at 0.3 µM,JAK2; [2],77.7%
same,remaining activity at 0.3 µM,BTK; [1],93.6%
same,remaining activity at 0.3 µM,BTK; [2],92.1%
same,remaining activity at 0.3 µM,PKCzeta; [1],97.2%
same,remaining activity at 0.3 µM,PKCzeta; [2],97.1%
same,remaining activity at 0.3 µM,TLK1; [1],103%
same,remaining activity at 0.3 µM,TLK1; [2],101%
same,remaining activity at 0.3 µM,MKK6; [1],116%
same,remaining activity at 0.3 µM,MKK6; [2],115%
same,remaining activity at 0.3 µM,MINK/MINK1; [1],95.6%
same,remaining activity at 0.3 µM,MINK/MINK1; [2],89.2%

# Source: article PMC8429728, “TNK1 is a ubiquitin-binding and 14-3-3-regulated kinase that can be targeted to block tumor growth” (Nature Communications, 2021)
